Assay [1] deals with T1, Metabotropic glutamate receptor 3 (Homo sapiens, UniProt Q14832). Put plainly: Binding affinity to human mGluR3 receptor expressed in HEK cells. It is filed as cell-based, HEK293.
In assay [2] the target is T1, Metabotropic glutamate receptor 3. Put plainly: Agonist activity at human mGluR3 receptor expressed in HEK cells. It is filed as cell-based, HEK293.
Another assay deals with Glutamate NMDA receptor. Nature of the assay: Displacement of [3H]CGP-39653 from NMDA receptor in rat brain cortical membranes. It is filed as cell membranes.
The target in assay [3] is T2, G-protein coupled receptor family C group 6 member A (Mus musculus, UniProt Q8K4Z6).
T2 sequence (Q8K4Z6 whole entry): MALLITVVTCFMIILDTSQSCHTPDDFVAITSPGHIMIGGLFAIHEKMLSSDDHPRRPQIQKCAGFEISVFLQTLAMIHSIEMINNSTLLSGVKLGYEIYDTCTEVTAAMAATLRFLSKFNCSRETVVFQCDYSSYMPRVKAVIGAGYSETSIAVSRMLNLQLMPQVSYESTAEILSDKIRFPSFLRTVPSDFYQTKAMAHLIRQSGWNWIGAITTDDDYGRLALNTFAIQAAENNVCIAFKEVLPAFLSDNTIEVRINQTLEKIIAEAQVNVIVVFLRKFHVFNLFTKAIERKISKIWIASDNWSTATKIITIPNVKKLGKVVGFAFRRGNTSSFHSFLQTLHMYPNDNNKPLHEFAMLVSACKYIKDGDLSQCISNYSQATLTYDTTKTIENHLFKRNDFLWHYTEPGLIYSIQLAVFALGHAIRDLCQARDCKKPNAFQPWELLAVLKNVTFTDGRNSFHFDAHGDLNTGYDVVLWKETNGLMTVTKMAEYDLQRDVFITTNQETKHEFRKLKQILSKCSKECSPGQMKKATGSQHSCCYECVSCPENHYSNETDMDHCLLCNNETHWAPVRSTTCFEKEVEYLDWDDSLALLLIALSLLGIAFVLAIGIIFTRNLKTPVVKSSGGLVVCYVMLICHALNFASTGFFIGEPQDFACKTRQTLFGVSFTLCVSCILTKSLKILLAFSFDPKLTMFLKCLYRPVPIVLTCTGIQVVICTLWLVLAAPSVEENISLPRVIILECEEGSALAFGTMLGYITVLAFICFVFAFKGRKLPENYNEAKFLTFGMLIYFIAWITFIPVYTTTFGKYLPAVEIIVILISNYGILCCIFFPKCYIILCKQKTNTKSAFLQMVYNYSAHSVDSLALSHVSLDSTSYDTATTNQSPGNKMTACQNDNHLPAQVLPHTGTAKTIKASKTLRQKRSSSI
Nature of the assay: Agonist activity at mouse GPRC6A expressed in human tsA201 cells coexpressing GalphaqG66D after 30 mins by inositol phosphate turnover assay. The assay is classed as functional, cell-based.

Assay [4] addresses T3, Metabotropic glutamate receptor 7 (Homo sapiens, UniProt Q14831). Put plainly: Agonist activity at human mGluR7 receptor expressed in HEK cells. The assay is classed as cell-based, HEK293.
In assay [5] the target is T3, Metabotropic glutamate receptor 7. Put plainly: Binding affinity to human mGluR7 receptor expressed in HEK cells. The assay is classed as cell-based, HEK293.

This note sets out measurements from ChEMBL document CHEMBL3390832 (Medchemcomm, 2011).

T1 sequence (Q14832 whole entry): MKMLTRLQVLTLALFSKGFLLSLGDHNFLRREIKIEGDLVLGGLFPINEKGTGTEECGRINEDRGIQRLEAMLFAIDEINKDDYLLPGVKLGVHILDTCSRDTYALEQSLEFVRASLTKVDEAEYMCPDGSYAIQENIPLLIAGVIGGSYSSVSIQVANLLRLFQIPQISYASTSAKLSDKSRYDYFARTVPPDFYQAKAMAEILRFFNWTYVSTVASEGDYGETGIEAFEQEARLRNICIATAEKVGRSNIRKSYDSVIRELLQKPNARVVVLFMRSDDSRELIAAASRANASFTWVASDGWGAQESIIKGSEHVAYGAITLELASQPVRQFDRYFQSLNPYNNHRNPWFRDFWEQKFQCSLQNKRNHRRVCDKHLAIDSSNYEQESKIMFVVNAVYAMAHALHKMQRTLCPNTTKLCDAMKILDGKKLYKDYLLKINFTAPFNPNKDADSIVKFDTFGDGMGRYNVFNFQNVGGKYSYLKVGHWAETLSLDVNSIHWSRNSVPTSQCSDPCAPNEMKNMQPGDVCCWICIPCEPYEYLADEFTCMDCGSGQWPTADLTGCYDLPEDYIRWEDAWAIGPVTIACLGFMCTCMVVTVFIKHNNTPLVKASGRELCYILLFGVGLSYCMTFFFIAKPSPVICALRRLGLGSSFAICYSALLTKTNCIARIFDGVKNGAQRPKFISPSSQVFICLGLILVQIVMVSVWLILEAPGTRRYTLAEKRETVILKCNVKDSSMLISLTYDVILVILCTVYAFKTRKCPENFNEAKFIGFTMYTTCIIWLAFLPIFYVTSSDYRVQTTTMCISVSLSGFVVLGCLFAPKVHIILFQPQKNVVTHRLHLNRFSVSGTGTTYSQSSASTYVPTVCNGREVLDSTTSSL
T3 sequence (Q14831 whole entry): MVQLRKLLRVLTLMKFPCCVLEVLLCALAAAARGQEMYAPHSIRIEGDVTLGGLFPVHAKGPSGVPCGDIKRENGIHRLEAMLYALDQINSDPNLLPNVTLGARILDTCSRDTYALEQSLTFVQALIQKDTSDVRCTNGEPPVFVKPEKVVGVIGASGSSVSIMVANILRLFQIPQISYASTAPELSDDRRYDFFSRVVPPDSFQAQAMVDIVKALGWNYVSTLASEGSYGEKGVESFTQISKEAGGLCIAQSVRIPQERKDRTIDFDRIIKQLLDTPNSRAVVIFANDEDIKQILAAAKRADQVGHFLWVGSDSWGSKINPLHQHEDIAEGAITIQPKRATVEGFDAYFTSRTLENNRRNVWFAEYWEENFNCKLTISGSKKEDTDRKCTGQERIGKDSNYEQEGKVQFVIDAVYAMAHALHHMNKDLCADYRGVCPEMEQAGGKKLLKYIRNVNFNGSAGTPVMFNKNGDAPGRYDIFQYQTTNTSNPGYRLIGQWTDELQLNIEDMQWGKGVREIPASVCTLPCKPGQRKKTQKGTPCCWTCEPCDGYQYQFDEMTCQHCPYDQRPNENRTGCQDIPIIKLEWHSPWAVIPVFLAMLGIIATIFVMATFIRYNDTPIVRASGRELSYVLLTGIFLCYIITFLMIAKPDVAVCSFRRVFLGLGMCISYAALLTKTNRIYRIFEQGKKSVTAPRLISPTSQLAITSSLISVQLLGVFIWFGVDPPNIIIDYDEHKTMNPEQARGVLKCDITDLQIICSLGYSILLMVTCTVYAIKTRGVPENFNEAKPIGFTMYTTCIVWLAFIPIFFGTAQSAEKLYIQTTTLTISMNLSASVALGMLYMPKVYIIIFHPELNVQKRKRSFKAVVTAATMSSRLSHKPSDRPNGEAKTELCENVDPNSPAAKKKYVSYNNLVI

`N[C@@]1(C(=O)O)C[C@@H]1CC(=O)O` (relative stereo): the results for the Ki (in assay [1]; on Glutamate NMDA receptor) were 200 µM and 77 µM, respectively. The compound also had a concentration for a half-maximal effect (EC50) in assay [2] of 200 µM. On to `N[C@]1(C(=O)O)C[C@H]1Cc1nsnc1O` (relative stereo), for which the affinity on Glutamate NMDA receptor corresponds to a Ki of 19 µM.

In turn, `N[C@@H](CCc1nsnc1O)C(=O)O` registered an inhibitory constant (Ki) on Glutamate NMDA receptor greater than 100 µM.

In turn, `N=C(N)NCCC[C@H](N)C(=O)O` [ARGININE] had an EC50 in assay [3] of 284 µM.

The compound `N[C@H](CCc1nsnc1O)C(=O)O` displayed a Ki on Glutamate NMDA receptor greater than 100 µM. With `N[C@@H](CCC(=O)O)C(=O)O` [GLUTAMIC ACID], the values for the Ki in assay [1] and in assay [5] were 0.0575 µM and 1170 µM, respectively. Also, the EC50 in assay [2] was found to be 0.06 µM; in assay [4], 1180 µM. On to `N[C@@]1(C(=O)O)C[C@H]1CC(=O)O` (relative stereo), for which the 50% effective concentration (EC50) in assay [2] was greater than 1000 µM. This compound also registered an inhibition constant Ki at Glutamate NMDA receptor of 72 µM.
